Patent US8563472B2 (priority 2010, dated 2013)

Columns and labels:
[1] = system: Leptosphaeria nodorum (LEPTNO); assay: In vitro fungitoxicity assay against Leptosphaeria nodorum in copper-minus / copper-plus liquid medium; format: cell-based; settings: test compound 0.05 μg/mL, 25° C., 72 h; for inhibition of growth at 0.05 µg/mL: Parastagonospora nodorum, copper-minus medium, growth by light scattering, read-out: LEPTNO % Inhn. Minus Copper Observed; for LEPTNO % Inhn. Plus Copper Observed: copper-plus medium (CuCl2.2H2O)
Protocol: In vitro fungitoxicity assays against Leptosphaeria nodorum (LEPTNO) were conducted using the liquid growth medium described by Coursen and Sisler (American Journal of Botany 1960, 47, 541-549) except that copper micronutrient, normally included as CuSO4, was omitted. The medium, termed “copper-minus”, was prepared by dissolving 10 g glucose, 1.5 g K2HPO4, 2 g KH2PO4 and 1 g (NH4)2SO4 in 1 liter of deionized water and treating the solution with 0.5 g Chelex 100 resin (Bio-Rad Analytical grade, 50-100 mesh, sodium form, cat#142-2822) by stirring at room temperature for 1 h. MgSO4.7H2O (0.5 g) was added, and stirring was continued for a further hour. Trace elements (minus CuSO4), and vitamins described by Coursen and Sisler were added from concentrated stock solutions and the entire medium was sterilized by filtration. Medium containing copper was prepared by adding CuCl2.2H2O to the copper-minus medium at 20 μM. […] Copper-minus medium (100 μL) was added to one of the wells and copper-plus medium to the second well. Control wells, included for each medium, received 1 μL DMSO and 100 μL of medium.
LEPTNO was grown on potato dextrose agar in 9 cm diameter petri dishes for 7 days (d). Sterile deionized water (20 mL) was added to a culture plate and spores suspended by scraping the surface gently with a sterile plastic loop. The resulting suspension was filtered through a double layer of sterile cheesecloth. […] The spores were resuspended in copper-minus medium, and the suspension adjusted to 2×10^5 spores per mL. Microtiter plates were inoculated with 100 μL of this spore suspension and the plates incubated at 25° C. for 72 h before assessing fungal growth by measuring light scattering in a NepheloStar plate reader. Growth inhibition was determined by comparing growth in the presence of test compound with growth in control wells lacking test compound.

[2] = system: Phytophthora infestans; format: in vivo; settings: hydrazone 50 ppm with 50 μM CuCl2.2H2O, applied 24 h before inoculation, tomato plants, assessed 7 d after inoculation

Row | Structure (SMILES) | inhibition of growth at 0.05 µg/mL [1] | LEPTNO % Inhn. Plus Copper Observed [1] | melting point | TLB % control [2]
1 | C/C(=N\NC(=O)c1ccoc1C)c1cc(Br)cc(Br)c1O [Compound 52] | 0% | 97.7% | 201 to 204 °C | 66%
2 | C/C(=N\NC(=O)c1ccc(Cl)s1)c1cc(Cl)cc(Cl)c1O [Compound 44] | 2% | 96.9% | 221 to 224 °C | 68%
3 | O=C(N/N=C/c1cc(Cl)cc(Cl)c1O)c1cnn(-c2ccc(Cl)cc2)c1C(F)(F)F [Compound 17] | 15.8% | 92.6% | 216 to 217 °C | 69%
4 | C/C(=N\NC(=O)c1csc(C)c1)c1ccccc1O [Compound 39] | 0% | 97.3% | 158 to 160 °C | 66%
5 | Cc1nn(-c2ccccc2)nc1C(=O)N/N=C/c1ccccc1O [Compound 21] | 0% | 93.9% | 231 to 233 °C | 16%
6 | O=C(N/N=C/c1cc(Cl)cc(Cl)c1O)c1ccsc1 [Compound 28] | 4.4% | 97.6% | 315 to 318 °C | 80%
7 | Cc1cc(C(=O)N/N=C/c2ccccc2O)cs1 [Compound 24] | 2.9% | 94.8% | 180 to 182 °C | 56%
8 | C/C(=N\NC(=O)c1cn(-c2ccccc2)nc1O)c1ccccc1O [Compound 36] | 9.2% | 92.5% | 276 to 277 °C | 66%
9 | Cc1occc1C(=O)N/N=C/c1cc(Br)cc(Br)c1O [Compound 33] | 9.1% | 97.8% | 270 to 272 °C | 66%
10 | C/C(=N\NC(=O)c1cnn(-c2ccc(Cl)cc2)c1C(F)(F)F)c1cc(Cl)cc(Cl)c1O [Compound 41] | 0% | 71.3% | 209 to 211 °C | 36%
11 | Cc1cc(C(=O)N/N=C/c2cc(Cl)cc(Cl)c2O)c2cc(Br)ccc2n1 [Compound 1] | 2.5% | 73.8% | 265 to 267 °C | 7%
12 | O=C(N/N=C/c1cc(Cl)cc(Cl)c1O)c1sc(C(F)(F)F)nc1C(F)(F)F [Compound 12] | 49.8% | 94.7% | 189 to 190 °C | 57%
13 | C/C(=N\NC(=O)c1sc(C)nc1C)c1cc(Br)cc(Br)c1O [Compound 49] | 2.6% | 89.1% | 221 to 223 °C | 61%
14 | C/C(=N\NC(=O)c1csc(C)c1)c1cc(Cl)cc(Cl)c1O [Compound 45] | 3.7% | 98.3% | 218 to 220 °C | 83%
15 | C/C(=N\NC(=O)c1ccc(Cl)s1)c1ccccc1O [Compound 38] | 0% | 98% | 204 to 205 °C | 56%
16 | C/C(=N\NC(=O)c1ccsc1)c1cc(Cl)cc(Cl)c1O [Compound 47] | 0% | 98.1% | 230 to 232 °C | 81%
17 | C/C(=N\NC(=O)c1ccsc1)c1cc(Br)cc(Br)c1O [Compound 53] | 7.6% | 97.6% | 251 to 253 °C | 73%
